Key:
Pancreas GK = target: T1, Pancreas GK (Homo sapiens, UniProt P35557); test: Glucokinase enzyme assay, pancreas GK; format: biochemical; conditions: for EC50: concentration that produces 50% activation above the vehicle control; for EC100%: concentration that produces 100% activation above the vehicle control; for activation at 50 µM: percentage increase in GK activity above vehicle control, compound 50 μM, 12 mM glucose
T1 construct: (His)6; made in house; host or cells: Escherichia coli
T1 sequence (P35557 1-465): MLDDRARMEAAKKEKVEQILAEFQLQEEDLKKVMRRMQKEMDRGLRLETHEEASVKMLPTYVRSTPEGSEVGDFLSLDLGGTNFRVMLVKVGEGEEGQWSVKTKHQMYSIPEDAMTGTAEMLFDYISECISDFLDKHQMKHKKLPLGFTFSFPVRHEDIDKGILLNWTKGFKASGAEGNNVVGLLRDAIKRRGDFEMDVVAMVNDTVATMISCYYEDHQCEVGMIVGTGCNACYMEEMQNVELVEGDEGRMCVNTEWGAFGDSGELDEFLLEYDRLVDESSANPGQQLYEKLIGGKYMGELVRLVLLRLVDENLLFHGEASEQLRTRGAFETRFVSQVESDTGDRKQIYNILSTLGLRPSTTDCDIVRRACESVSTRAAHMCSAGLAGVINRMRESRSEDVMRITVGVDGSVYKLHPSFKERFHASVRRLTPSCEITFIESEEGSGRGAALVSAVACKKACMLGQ
Source text: (§1) An enzymatic Glucokinase (GK) assay using purified recombinant human liver/pancreas enzyme was used to evaluate the effects of potential small molecule modulators.
(§2) In this assay, GK catalyzes glucose phosphorylation in the presence of ATP. The product of this reaction, glucose-6-phosphate, was then oxidized by an excess of glucose-6-phosphate dehydrogenase to produce gluconate-6-phosphate with concomitant reduction of nicotinamide adenine dinucleotide (NAD). […] Human GK (Liver/Pancreas) was expressed in Escherichia coli as a (His) 6-tagged fusion protein and was purified by metal chelate affinity chromatography. The assay was performed in a final incubation volume of 80 μl in a 96-well clear low UV absorption plates. The incubation mixture consisted of 25 mM HEPES, 2 mM MgSO4, 1 mM dithiothreotol (DTT), 1 mg/mL bovine serum albumin (BSA), 1 mM ATP, 1 mM NAD, and 12 mM glucose, 10 units per mL glucose-6-phosphate dehydrogenase, and +/−300 ng per mL GK. For determination of the affinity (Km) and Vmax, different concentrations of glucose ranging from 0.5 mM to 40 mM were used in the assay; see Grimsby, J., Sarabu, R.; Grippo, J. F.; et. al. Science 2003, 301, 370-373. Production of reduced NAD (Nicotinamide Adenine Dinucleotide) was measured as changes in absorption at 340 nm in 96-well plate reader (Envision model #2101 Multilabel Plate reader). % Activation @ 50 μM was calculated as the percentage increase in GK activity above the vehicle control with the effective concentration of the compound being 50 μM. EC50% (μM) was calculated as the effective concentration of the compound that produces 50% activation above the vehicle control, and EC100% (μM) was calculated as the effective concentration of the compound that produces 100% activation above the vehicle control.

Liver GK = target: T2, Liver GK (Homo sapiens, UniProt P35557); test: Glucokinase enzyme assay, liver GK; format: biochemical; conditions: for EC50: concentration that produces 50% activation above the vehicle control; for EC100%: concentration that produces 100% activation above the vehicle control; for activation at 50 µM: percentage increase in GK activity above vehicle control, compound 50 μM, 12 mM glucose
T2 construct: (His)6; made in house; host or cells: Escherichia coli
T2 sequence (P35557 1-466 isoform P35557-2): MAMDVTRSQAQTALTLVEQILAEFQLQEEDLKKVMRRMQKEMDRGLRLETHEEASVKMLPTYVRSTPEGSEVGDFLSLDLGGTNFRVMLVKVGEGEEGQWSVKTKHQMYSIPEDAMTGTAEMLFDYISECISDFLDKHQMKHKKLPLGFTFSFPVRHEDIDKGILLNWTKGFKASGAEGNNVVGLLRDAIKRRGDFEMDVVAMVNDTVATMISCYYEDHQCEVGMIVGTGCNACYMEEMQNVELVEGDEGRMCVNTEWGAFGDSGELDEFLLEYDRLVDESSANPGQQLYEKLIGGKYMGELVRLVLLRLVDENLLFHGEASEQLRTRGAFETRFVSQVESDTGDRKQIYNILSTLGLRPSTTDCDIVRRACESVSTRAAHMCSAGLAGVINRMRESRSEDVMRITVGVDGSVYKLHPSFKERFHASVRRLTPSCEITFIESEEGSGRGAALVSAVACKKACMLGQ
Source text: as §1, §2

Compound | EC50 (Pancreas GK) | EC100% (Pancreas GK) | EC50 (Liver GK) | EC100% (Liver GK) | activation at 50 µM (Pancreas GK) | activation at 50 µM (Liver GK)
COc1ccc(CN2C(=O)C=C(C)C2SCC(=O)Nc2ccccn2)cc1 (stereo not drawn) [Compound 19, 2-[1-(4-Methoxy-benzyl)-3-methyl-5-oxo-2,5-dihydro-1H-pyrrol-2-ylsulfanyl]-N-pyridin-2-yl-acetamide] | 15.2 µM | 47.3 µM | 13.8 µM | 30.5 µM |  | 
CCc1ccnc(NC(=O)CSC2C(C)=C(C)C(=O)N2Cc2ccc(OC)cc2)c1 (stereo not drawn) [Compound 22, N-(4-Ethyl-pyridin-2-yl)-2-[1-(4-methoxy-benzyl)-3,4-dimethyl-5-oxo-2,5-dihydro-1H-pyrrol-2-ylsulfanyl]-acetamide] | 24.1 µM |  | 17.3 µM |  | 70% | 82%
CCc1ccc(CN2C(=O)C(C)=C(C)C2SCC(=O)Nc2ccccn2)cc1 (stereo not drawn) [Compound 26, 2-[1-(4-Ethyl-benzyl)-3,4-dimethyl-5-oxo-2,5-dihydro-1H-pyrrol-2-ylsulfanyl]-N-pyridin-2-yl-acetamide] | 24 µM |  | 15.3 µM | 35.9 µM | 102% | 154%
COC(=O)c1ccc(NC(=O)COC2C(C)=C(C)C(=O)N2Cc2ccc(OC)cc2)nc1 (stereo not drawn) [Compound 27, 6-{2-[1-(4-Methoxy-benzyl)-3,4-dimethyl-5-oxo-2,5-dihydro-1H-pyrrol-2-yloxy]-acetylamino}-nicotinic acid methyl ester] | 20 µM | >50 µM | 14.1 µM | >50 µM |  | 90%
COc1ccc(CN2C(=O)C(C)=C(C)C2OCC(=O)Nc2ccc(C)cn2)cc1 (stereo not drawn) [Compound 28, 2-[1-(4-Methoxy-benzyl)-3,4-dimethyl-5-oxo-2,5-dihydro-1H-pyrrol-2-yloxy]-N-(5-methyl-pyridin-2-yl)-acetamide] | 18.5 µM | >50 µM | 14.2 µM | >50 µM |  | 90%
COc1ccc(CN2C(=O)C(C)=C(C)C2OCC(=O)Nc2ccccn2)cc1 (stereo not drawn) [Compound 30, 2-[1-(4-Methoxy-benzyl)-3,4-dimethyl-5-oxo-2,5-dihydro-1H-pyrrol-2-yloxy]-N-pyridin-2-yl-acetamide] | > 50 µM | >50 µM | 34.5 µM | >50 µM |  | 
COc1ccc(CN2C(=O)C(C)=C(C)C2OCC(=O)Nc2nccs2)cc1 (stereo not drawn) [Compound 31, 2-[1-(4-Methoxy-benzyl)-3,4-dimethyl-5-oxo-2,5-dihydro-1H-pyrrol-2-yloxy]-N-thiazol-2-yl-acetamide] |  |  |  |  | 3% | 21%

The next lines start with the values.

EC50 (Pancreas GK) | EC100% (Pancreas GK) | EC50 (Liver GK) | EC100% (Liver GK) | activation at 50 µM (Pancreas GK) | activation at 50 µM (Liver GK) | Compound
3.23 µM | 8.87 µM | 2.78 µM | 6.61 µM |  |  | CC1=C(C)C(SCC(=O)Nc2ccccn2)N(Cc2ccc3c(c2)CCO3)C1=O (stereo not drawn) [Compound 20, 2-[1-(2,3-Dihydro-benzofuran-5-ylmethyl)-3,4-dimethyl-5-oxo-2,5-dihydro-1H-pyrrol-2-ylsulfanyl]-N-pyridin-2-yl-acetamide]
7.12 µM | 19.43 µM | 4.73 µM | 12.68 µM |  |  | COc1ccc(CN2C(=O)C(C)=C(C)C2SCC(=O)Nc2cc(C)ccn2)cc1 (stereo not drawn) [Compound 21, 2-[1-(4-Methoxy-benzyl)-3,4-dimethyl-5-oxo-2,5-dihydro-1H-pyrrol-2-ylsulfanyl]-N-(4-methyl-pyridin-2-yl)-acetamide]
8.13 µM | 20.28 µM | 6.23 µM | 13.78 µM |  |  | COc1ccc(CN2C(=O)C(C)=C(C)C2SCC(=O)Nc2cccc(C)n2)cc1 (stereo not drawn) [Compound 23, 2-[1-(4-Methoxy-benzyl)-3,4-dimethyl-5-oxo-2,5-dihydro-1H-pyrrol-2-ylsulfanyl]-N-(6-methyl-pyridin-2-yl)-acetamide]
13.6 µM | 37.3 µM | 8.4 µM | 26.7 µM | 124% | 172% | CC1=C(C)C(SCC(=O)Nc2ccccn2)N(Cc2cccs2)C1=O (stereo not drawn) [Compound 24, 2-(3,4-Dimethyl-5-oxo-1-thiophen-2-ylmethyl-2,5-dihydro-1H-pyrrol-2-ylsulfanyl)-N-pyridin-2-yl-acetamide]
14.7 µM | 44.9 µM | 6.3 µM | 28.5 µM | 130% | 180% | CC1=C(C)C(SCC(=O)Nc2ccccn2)N(Cc2ccc(C(C)C)cc2)C1=O (stereo not drawn) [Compound 25, 2-[1-(4-Isopropyl-benzyl)-3,4-dimethyl-5-oxo-2,5-dihydro-1H-pyrrol-2-ylsulfanyl]-N-pyridin-2-yl-acetamide]
11.8 µM | 41.4 µM | 7.7 µM | 26.1 µM |  |  | COc1cc(CN2C(=O)C(C)=C(C)C2SCC(=O)Nc2ccccn2)cc(OC)c1 (stereo not drawn) [Compound 29, 2-[1-(3,5-Dimethoxy-benzyl)-3,4-dimethyl-5-oxo-2,5-dihydro-1H-pyrrol-2-ylsulfanyl]-N-pyridin-2-yl-acetamide]
